The text below walks through data of publication PMC13429874, “ABHD2 activity is not required for the non-genomic action of progesterone on human sperm” (Human Reproduction (Oxford, England), 2026).

“Also recorded” adds a separate entry of the source.

Experiment [1] deals with human sperm. In words: Sperm hyperactivation assay (CASA). The format is cell-based. The conditions noted are these: 10 µM compound, 30 min. As for the experimental part:
Sperm hyperactivation was assessed in human sperm purified by density gradient centrifugation. Semen samples (n = 7) were allowed to liquefy for 15–30 min at 37°C, and up to 2 ml of liquified semen was layered onto a two-step GM501 gradient system (45%/90%; Gynemed; Sierksdorf, Germany) pre-equilibrated at 37°C. Gradients were centrifuged for 20 min at 400 × g (no break). The 90% pellet was collected, washed in SpermActive medium (Gynemed; composition per manufacturer: NaCl, KCl, MgSO4.7H2O, KH2PO4, 1.77 mM CaCl2.2H2O, D(+)-glucose anhydrous, sodium pyruvate, sodium lactate, EDTA, alanyl-glutamine, essential and non-essential amino acids, 25.71 mM NaHCO3, 15 mM HEPES, 5 g/l human serum albumin, 10 mg/l gentamicin, and phenol red), and incubated for at least 2 h at 37°C, 5% CO2.
For compound testing, sperm suspensions with 7.5 × 10^6 sperm/ml in SpermActive were treated with either DMSO (vehicle) or 10 µM test compound. For basal and induced hyperactivation conditions, DMSO or progesterone (3 µM), respectively, was added. Samples were incubated for 30 min at 37°C, 5% CO2, before motility analysis.
Motility was analyzed using a CASA system (CEROSII^TM Animal Motility, software version 1.16; Hamilton Thorne, Beverly, MA, USA), mounted on an Axiolab 5 microscope (Zeiss, Germany), equipped with a TPi-SX Thermal Plate (Tokai Hit; Shizuoka-ken, Japan) and a JAI CM-040-GE CCD camera (JAI; Tokyo, Japan). Leja slides (20 µm chamber depth; Leja Products B.V., Nieuw-Vennep, The Netherlands) were pre-warmed to 37°C, cleaned with lens paper, and loaded by capillary action with 6 µl sperm suspension; capillary correction was set to 1.3. Sperm tracks were recorded at 37°C using a 10× negative-phase objective, acquiring 60 frames at 60 Hz with 4 ms exposure and gain set to 600. For each sample and condition, 300–500 motile sperm from at least 10 non-overlapping fields were analyzed. Hyperactive sperm were identified using the SORT function with the following Boolean argument: VCL > 150 µm/s and LIN < 50% and ALH > 7 µm. For each sample and condition, the percentage of hyperactive sperm was normalized to the percentage of motile sperm, and the mean of two technical duplicates was reported.
Statistical analysis was performed using GraphPad Prism 10 for Windows (version 10.6.1). Data normality was assessed using Shapiro–Wilk test. Differences between basal and induced hyperactivation were evaluated using a paired t-test, with effective pairing confirmed across all comparisons. P < 0.05 was considered statistically significant.

Experiment [2] has as its target T1, ABHD2^L33–E425 (Homo sapiens, UniProt P08910).
T1 construct: expression for ABHD2 amino acids L33–E425, in which a predicted transmembrane domain (amino acids 1–32) is removed; His6-FLAG (N); made in house; host or cells: E. coli BL21(DE3)-R3-pRARE2
T1 sequence (P08910 33-425): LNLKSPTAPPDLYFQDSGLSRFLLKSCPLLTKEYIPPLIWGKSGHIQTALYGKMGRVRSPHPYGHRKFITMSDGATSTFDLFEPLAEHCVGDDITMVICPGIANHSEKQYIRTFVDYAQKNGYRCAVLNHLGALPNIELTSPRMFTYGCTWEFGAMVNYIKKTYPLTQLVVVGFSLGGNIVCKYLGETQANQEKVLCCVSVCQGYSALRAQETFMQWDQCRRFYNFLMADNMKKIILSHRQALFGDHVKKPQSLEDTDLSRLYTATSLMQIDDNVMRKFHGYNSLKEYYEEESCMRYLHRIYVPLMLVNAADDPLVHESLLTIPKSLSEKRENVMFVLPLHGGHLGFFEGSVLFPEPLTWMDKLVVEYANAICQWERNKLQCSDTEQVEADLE
In words: ABHD2^L33-E425 fluorometric enzymatic activity assay with 7-HCA substrate. The format is biochemical. To be noted: 10 nM enzyme, 10 µM 7-HCA; read-out: IC50 for ABHD2^L33-425, fluorometric assay using 7-HCA.

Experiment [3] deals with T1, ABHD2^L33–E425. The experiment can be described thus: Differential scanning fluorimetry (DSF) with purified ABHD2^L33–E425. The format is binding.
Experiment [4] concerns the target T2, human ABHD10 (Homo sapiens, UniProt Q9NUJ1).
T2 construct: Constructs encoding amino acids T53—N306 of human ABHD10; His6-TEV site (N); made in house; host or cells: E. coli
T2 sequence (Q9NUJ1 53-306): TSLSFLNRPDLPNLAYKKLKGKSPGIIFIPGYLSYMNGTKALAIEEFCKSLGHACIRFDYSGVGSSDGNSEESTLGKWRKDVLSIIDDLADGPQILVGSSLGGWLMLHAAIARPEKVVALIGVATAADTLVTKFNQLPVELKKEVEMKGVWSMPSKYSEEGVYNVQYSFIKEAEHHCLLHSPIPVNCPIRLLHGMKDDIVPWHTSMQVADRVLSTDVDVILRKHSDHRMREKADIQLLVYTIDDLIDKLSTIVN
The experiment can be described thus: ABHD10 colorimetric assay with p-nitrophenyl butyrate. The format is biochemical. The conditions noted are these: 10 µM compound, 500 µM p-NPB. The protocol: Enzymatic activities of ABHD10 and ABHD11 were measured in a colorimetric assay using p-nitrophenyl butyrate (p-NPB) as substrate. Enzymes at 1500 nM ABHD10 and 125 nM ABHD11 in 20 mM HEPES pH 7.5, 150 mM NaCl, and 2% (v/v) DMSO were pre-incubated in 96-well plates with 50 µM test compound for 30 min at 4°C. Plates were then equilibrated at 37°C for 2 min, and reactions were initiated by adding 160 µl of pre-warmed substrate solution (same buffer with 625 µM p-NPB) to a total volume of 200 µl, yielding final assay concentrations of 300 nM ABHD10, 25 nM ABHD11, and 500 µM pNPB. The substrate solution was prepared immediately before addition to the enzyme mixtures. Absorbance at 405 nm was recorded on a SpectraMax iD3 plate reader (Molecular Devices) for 20 min with continuous monitoring at 30 s intervals.

In general, IC50 refers to the point on the concentration scale where inhibition reaches its midpoint. Turning to `CC1CCCN(C(=O)c2ccccc2C(=O)c2ccccc2)C1` (stereo not drawn) [Compound 4], the “effect on progesterone-induced hyperactivation” value in experiment [1] (3 µM progesterone) is given as “not affected”. The “effect on basal hyperactivation” value in experiment [1] is “No statistically significant differences; also recorded: did not affect”. In addition, the IC50 in experiment [2] is 360 nM. Moreover, the “effect on melting temperature / thermal stability of ABHD2^L33-E425 (DSF), in words” value in experiment [3] (10 µM compound, 30 min pre-incubation) is on record as “increased melting temperature”. The “ΔTm shift for ABHD2^L33-425 determined by DSF” value in experiment [3] (purified protein) amounted to 14 °C. Besides, the “inhibition of ABHD10” value in experiment [4] is reported as “no detectable inhibition”.
